In this assay the test system is mice. Briefly: Neuropharmacological Assay (SmartCube): automated behavioral signature of compound-treated mice compared with a database of reference drug classes. Format: in vivo. The settings on record: for minimal effective dose: Mus musculus, ip; for AD / AG / AN / AP / AX / CE / HL / MS / PS / SH / UK: 3.0 mg/kg i.p., 15 min before test. In short, it runs like this: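 Probabilities reflect how closely the digitally recorded behavioural signature at 3.0 mg/kg i.p. matched each reference class (antipsychotic, anxiolytic, antidepressant etc.). Dosing occurred 15 min before testing. Minimal effective dose was the dose giving 45% or more total activity.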

The mark [1] stands for this setting: dose having 45% or more total activity in SmartCube, i.p., if only one dose was tested, that dose is shown, read-out: MED (minimal effective dose).
The mark [2] stands for this setting: probability that activity matches this class of agents.
Where [3] appears, read: minimal effective dose: dose having 45% or more total activity in SmartCube, i.p., if only one dose tested, that dose is shown, read-out: MED.
[4] abbreviates: probability that activity matches this class of agents, hydrochloride, 3 mg/kg.
Where [5] appears, read: SmartCube class probability, hydrochloride, 3 mg/kg.
Where [6] appears, read: dose having 45% or more total activity in SmartCube, i.p., if only one dose was tested, that dose is shown, hydrochloride.

Structures can show the parent of a compound that is named as a salt. Where two headings read alike, the source gives them in different places.

Consider `CNC1(C)CCc2cscc2C1` (racemic) [Compound 103, racemic N, 5-dimethyl-6,7-dihydro-4H-2-benzothiophen-5-amine hydrochloride], for which the minimal effective dose under setting [1] was 1 mg/kg. For the same molecule, under setting [2], the AD entry is given as “ND (^ <4%)”, the AG result is “ND (^ <4%)”, the AN result is on record as “ND (^ <4%)” and the AP result was “ND (^ <4%)”. Under setting [2], the AX result is listed as “ND (^ <4%)”, the CE entry was “ND (^ <4%)”, the HL result is given as “ND (^ <4%)” and the MS result is “ND (^ <4%)”. In addition, under setting [2], the PS entry was “ND (^ <4%)”, the SH entry is on record as “ND (^ <4%)” and the UK result was “+++ (≥49%)”.
For `CNC1CCc2scc(C3CC3)c2C1` (stereo not drawn) [Compound 201, 3-cyclopropyl-N-methyl-4,5,6,7-tetrahydrobenzothiophen-5-amine hydrochloride], the minimal effective dose under setting [3] worked out at 3 mg/kg. Moreover, under “SmartCube class probability”, the AD result is “ND (^ <4%)”, the AG entry is reported as “ND (^ <4%)”, the AN result was “ND (^ <4%)” and the AP result is reported as “ND (^ <4%)”. In addition, under “SmartCube class probability”, the AX result was “+ (≥4%)”, the CE result is “ND (^ <4%)”, the HL result is on record as “ND (^ <4%)” and the MS entry is listed as “ND (^ <4%)”. Besides, where the note is “SmartCube class probability”, the PS entry was “ND (^ <4%)”, the SH result is given as “ND (^ <4%)” and the UK result is on record as “++ (≥24%)”.
As for `Cc1csc2c1OCC(N)C2` (stereo not drawn) [Compound 228, 3-methyl-6,7-dihydro-5H-thieno[3,2-b]pyran-6-amine hydrochloride], the minimal effective dose under setting [3] turned out to be 1 mg/kg. Besides, where the note is “SmartCube class probability”, the AD entry is recorded as “ND (^ <4%)”, the AG result is listed as “ND (^ <4%)”, the AN entry was “ND (^ <4%)” and the AP entry was “ND (^ <4%)”. Moreover, for the setting “SmartCube class probability”, the AX result is recorded as “ND (^ <4%)”, the CE result is recorded as “ND (^ <4%)”, the HL entry was “ND (^ <4%)” and the MS result was “ND (^ <4%)”. Besides, under “SmartCube class probability”, the PS entry is given as “ND (^ <4%)”, the SH result is “ND (^ <4%)” and the UK entry is listed as “ND (^ <4%)”.
As for `CNC1CCc2scc(F)c2C1` (single isomer, unassigned) [Compound 137, 3-fluoro-N-methyl-4,5,6,7-tetrahydrobenzothiophen-5-amine hydrochloride], under setting [1], the minimal effective dose is 1 mg/kg. Further, under setting [2], the AD result is recorded as “ND (^ <4%)”, the AG entry is recorded as “ND (^ <4%)”, the AN result is “ND (^ <4%)” and the CE entry is on record as “ND (^ <4%)”. Moreover, under setting [2], the HL entry is given as “ND (^ <4%)”, the MS result is on record as “ND (^ <4%)”, the PS entry is listed as “ND (^ <4%)” and the SH result is on record as “ND (^ <4%)”. Further, the UK entry under setting [2] is reported as “ND (^ <4%)”. Under setting [4], the AP result is “++++ (≥74%)” and the AX entry is reported as “ND (^ <4%)”.
Consider `CNC1(C)CCc2scc(C(F)(F)F)c2C1` (stereo not drawn) [Compound 190, N, 5-dimethyl-3-(trifluoromethyl)-6,7-dihydro-4H-benzothiophen-5-amine hydrochloride], for which, under setting [3], the minimal effective dose was more than 3 mg/kg. For the same molecule, for the setting “SmartCube class probability”, the AD result is “ND (^ <4%)”, the AG entry is “ND (^ <4%)”, the AN result is recorded as “ND (^ <4%)” and the AP entry is “ND (^ <4%)”. Moreover, under “SmartCube class probability”, the AX entry was “ND (^ <4%)”, the CE entry is recorded as “ND (^ <4%)”, the HL result is “ND (^ <4%)” and the MS result was “ND (^ <4%)”. Moreover, where the note is “SmartCube class probability”, the PS result was “ND (^ <4%)”, the SH result is “ND (^ <4%)” and the UK result was “+ (≥4%)”.
Regarding `CNC1CCc2sc(C)cc2C1` (single isomer, unassigned) [Compound 224, N, 2-dimethyl-4,5,6,7-tetrahydrobenzothiophen-5-amine hydrochloride], for the setting “SmartCube class probability”, the AD entry is “ND (^ <4%)”, the AG entry is listed as “ND (^ <4%)”, the AN entry is reported as “ND (^ <4%)” and the AX entry is given as “ND (^ <4%)”. Besides, for the setting “SmartCube class probability”, the CE entry is recorded as “ND (^ <4%)”, the HL result is “ND (^ <4%)”, the MS result is “ND (^ <4%)” and the PS result is “ND (^ <4%)”. Further, the SH result (SmartCube class probability) is “ND (^ <4%)”. Further, under setting [5], the AP entry is recorded as “++++ (≥74%)” and the UK entry is reported as “ND (^ <4%)”. This molecule gave an MED (minimal effective dose: dose having 45% or more total activity in SmartCube, i.p., if only one dose tested, that dose is shown, hydrochloride) of 3 mpk.
As to `CNC1CCc2c(C)csc2C1` (single isomer, unassigned) [Compound 45, N, 3-dimethyl-4,5,6,7-tetrahydrobenzothiophen-6-amine hydrochloride], under setting [6], the “MED (minimal effective dose)” value stood at 0.1 mpk. In addition, under setting [2], the AG result is listed as “ND (^ <4%)”, the AN result is “ND (^ <4%)”, the AX entry is recorded as “ND (^ <4%)” and the CE entry was “ND (^ <4%)”. Under setting [2], the HL entry is “ND (^ <4%)”, the MS entry is recorded as “ND (^ <4%)”, the PS entry is “ND (^ <4%)” and the SH entry is recorded as “ND (^ <4%)”. In addition, the UK result under setting [2] was “ND (^ <4%)”. For the same molecule, under setting [4], the AD result is “++++ (≥74%)” and the AP entry is given as “+ (≥4%)”.
As for `Cl.c1cc2c(s1)CC(N1CCCC1)CC2` (single isomer, unassigned) [Compound 18, 1-(4,5,6,7-tetrahydrobenzothiophen-6-yl)pyrrolidine hydrochloride], the “MED (minimal effective dose)” value under setting [6] worked out at 0.3 mpk. Further, under setting [2], the AG entry was “ND (^ <4%)”, the AN entry is reported as “ND (^ <4%)”, the CE entry is reported as “ND (^ <4%)” and the HL entry is “ND (^ <4%)”. Also, under setting [2], the MS entry is “ND (^ <4%)”, the PS result is “ND (^ <4%)”, the SH entry is “ND (^ <4%)” and the UK result was “ND (^ <4%)”. For the same molecule, under setting [4], the AD entry was “++++ (≥74%)”, the AP entry is on record as “+ (≥4%)” and the AX entry is reported as “ND (^ <4%)”.
Take `CC1(N)CCc2cscc2C1.Cl` (single isomer, unassigned) [Compound 123, 5-methyl-6,7-dihydro-4H-2-benzothiophen-5-amine hydrochloride]: the “MED (minimal effective dose)” value (dose having 45% or more total activity in SmartCube, i.p., if only one dose was tested, that dose is shown) was 1 mpk. Under setting [2], the AG entry is given as “ND (^ <4%)”, the AN result was “ND (^ <4%)”, the AP result is “ND (^ <4%)” and the CE entry is reported as “ND (^ <4%)”. Besides, under setting [2], the MS entry is reported as “ND (^ <4%)”, the SH entry is reported as “ND (^ <4%)” and the UK entry is listed as “ND (^ <4%)”. For the same molecule, under setting [4], the AD entry is reported as “+ (≥4%)”, the AX result is “ND (^ <4%)”, the HL result is recorded as “++ (≥24%)” and the PS result was “++ (≥24%)”.
As to `CNC1(C)CCc2c(C(F)(F)F)csc2C1.Cl` (single isomer, unassigned) [Compound 261, N, 6-dimethyl-3-(trifluoromethyl)-5,7-dihydro-4H-benzothiophen-6-amine hydrochloride], under setting [3], the minimal effective dose worked out at 3 mg/kg. Moreover, for the setting “SmartCube class probability”, the AG entry is on record as “ND (^ <4%)”, the AN entry was “ND (^ <4%)”, the AP result was “ND (^ <4%)” and the AX entry was “ND (^ <4%)”. Further, under “SmartCube class probability”, the CE result was “ND (^ <4%)”, the HL result is given as “ND (^ <4%)”, the MS entry is reported as “ND (^ <4%)” and the PS entry is on record as “ND (^ <4%)”. Also, where the note is “SmartCube class probability”, the SH entry is listed as “ND (^ <4%)”. Besides, under setting [5], the AD entry was “+++ (≥49%)” and the UK entry was “+ (≥4%)”.
In the case of `CNC1CCc2c(csc2F)C1` (single isomer, unassigned) [Compound 76, 1-fluoro-N-methyl-4,5,6,7-tetrahydro-2-benzothiophen-5-amine hydrochloride], under setting [6], the “MED (minimal effective dose)” value is recorded as 3 mpk. In addition, under setting [2], the AD entry is “ND (^ <4%)”, the AG result is “ND (^ <4%)”, the AN result was “ND (^ <4%)” and the CE entry is reported as “ND (^ <4%)”. In addition, under setting [2], the HL result was “ND (^ <4%)”, the MS entry was “ND (^ <4%)”, the PS result is “ND (^ <4%)” and the SH entry is “ND (^ <4%)”. In addition, under setting [2], the UK result is recorded as “ND (^ <4%)”. Under setting [4], the AP result is “++ (≥24%)” and the AX result is “++ (≥24%)”.
For `CNC1CCc2c(F)sc(C)c2C1` (single isomer, unassigned) [Compound 210, 1-fluoro-N, 3-dimethyl-4,5,6,7-tetrahydro-2-benzothiophen-5-amine hydrochloride], the minimal effective dose under setting [3] was found to be 3 mg/kg. Under “SmartCube class probability”, the AD result is reported as “ND (^ <4%)”, the AG entry is listed as “ND (^ <4%)”, the AN result is listed as “ND (^ <4%)” and the AX result was “ND (^ <4%)”. In addition, under “SmartCube class probability”, the CE entry is “ND (^ <4%)”, the HL entry is recorded as “ND (^ <4%)”, the MS result is on record as “ND (^ <4%)” and the PS entry is listed as “ND (^ <4%)”. In addition, the SH entry (SmartCube class probability) is recorded as “ND (^ <4%)”. For the same molecule, under setting [5], the AP entry is “+ (≥4%)” and the UK entry is listed as “+++ (≥49%)”.

These data come from patent publication US20260274814A1, “THIENYL COMPOUNDS FOR THE TREATMENT OF A CENTRAL NERVOUS SYSTEM DISEASE OR DISORDER” (Coreterra Therapeutics, Inc., priority 2023, published 2026).
